Assay results taken from article PMC6009933, “Discovery of novel dual inhibitors of receptor tyrosine kinases EGFR and IGF-1R” (Journal of Enzyme Inhibition and Medicinal Chemistry, 2017).

Columns and labels:
[1] = molecular target: T1, IGF-1R (Homo sapiens, UniProt P08069); test: Receptor tyrosine kinase inhibition, 33P-ATP FlashPlate assay (IGF-1R); format: biochemical; conditions: for Ki: recombinant GST fusion kinase, substrate Poly(Glu,Tyr)4:1, Ki from IC50, Km ATP 2.52 µM
T1 construct: GST; made in house; host or cells: Sf9 insect cells (baculovirus)
T1 sequence (P08069 31-1367): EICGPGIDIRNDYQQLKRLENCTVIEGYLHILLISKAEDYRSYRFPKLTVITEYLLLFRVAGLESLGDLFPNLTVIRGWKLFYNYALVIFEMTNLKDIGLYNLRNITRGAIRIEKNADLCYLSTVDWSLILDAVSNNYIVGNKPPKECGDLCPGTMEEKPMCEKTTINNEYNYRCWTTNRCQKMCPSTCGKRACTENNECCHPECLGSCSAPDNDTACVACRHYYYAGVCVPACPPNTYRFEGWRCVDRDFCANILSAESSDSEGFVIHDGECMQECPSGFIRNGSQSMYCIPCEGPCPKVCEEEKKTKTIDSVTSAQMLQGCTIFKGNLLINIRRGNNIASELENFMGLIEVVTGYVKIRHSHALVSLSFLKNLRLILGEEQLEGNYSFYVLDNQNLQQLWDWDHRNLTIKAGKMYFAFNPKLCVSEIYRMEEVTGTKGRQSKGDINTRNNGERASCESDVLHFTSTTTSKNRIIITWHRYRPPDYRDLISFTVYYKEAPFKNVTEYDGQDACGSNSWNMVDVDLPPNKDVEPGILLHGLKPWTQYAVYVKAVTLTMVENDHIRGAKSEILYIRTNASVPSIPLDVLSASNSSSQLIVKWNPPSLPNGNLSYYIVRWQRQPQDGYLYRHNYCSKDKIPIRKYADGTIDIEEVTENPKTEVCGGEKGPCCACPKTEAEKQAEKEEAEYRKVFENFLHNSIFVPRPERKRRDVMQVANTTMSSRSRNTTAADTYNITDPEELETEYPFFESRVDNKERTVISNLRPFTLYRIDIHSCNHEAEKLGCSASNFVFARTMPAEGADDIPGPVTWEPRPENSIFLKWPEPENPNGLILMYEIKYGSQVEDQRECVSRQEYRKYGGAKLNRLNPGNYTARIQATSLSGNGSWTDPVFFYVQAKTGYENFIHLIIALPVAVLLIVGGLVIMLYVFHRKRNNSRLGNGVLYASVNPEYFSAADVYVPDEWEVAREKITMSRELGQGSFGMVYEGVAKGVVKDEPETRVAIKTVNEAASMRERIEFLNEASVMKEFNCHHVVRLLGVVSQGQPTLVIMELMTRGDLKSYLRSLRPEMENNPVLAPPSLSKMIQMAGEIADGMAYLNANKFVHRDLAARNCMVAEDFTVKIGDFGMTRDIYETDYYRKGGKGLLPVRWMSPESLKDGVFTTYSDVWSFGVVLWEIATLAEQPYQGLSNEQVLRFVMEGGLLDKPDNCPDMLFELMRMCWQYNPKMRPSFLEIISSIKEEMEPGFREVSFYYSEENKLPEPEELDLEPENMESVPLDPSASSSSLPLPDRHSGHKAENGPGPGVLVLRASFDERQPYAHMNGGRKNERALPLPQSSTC
Description: (§1) The protein kinases were expressed by means of the baculovirus expression system in Sf9 insect cells as human recombinant GST fusion proteins and purified by affinity chromatography using GSH-agarose. The kinase identity was confirmed by mass spectrometry using LC-ESI-MS/MS technique.
(§2) The measuring of protein kinase activity was performed in 96-well FlashPlates^TM from Perkin Elmer in a 50 µL reaction volume. The reaction mixture consisted of 20 µL of assay buffer solution, 5 µL of ATP solution in water, 5 µL of used test compound in a 10% DMSO solution and finally a premixture of each 10 µL of used substrate and enzyme solutions. The assay buffer solution contained 70 mM of HEPES-NAOH pH 7.5, each 3 mM of magnesium chloride and manganese(II) chloride, 3 µM of sodium orthovanadate, 1.2 mM of DTT, 50 µg/mL of PEG20000 and finally 15 µM of [γ-^33P]-ATP making approximately 7 × 10^5 cpm per well.
(§3) The final kinase concentration has been 10 ng/50 µL for EGFR and IGF-1R. The used substrate was Poly(Glu,Tyr)4:1 in a concentration of 125 ng/50 µL.
(§4) The reaction mixtures were incubated at 30 °C for 60 min. The reaction was stopped with 50 µL of a 2% (v/v) solution of phosphoric acid. Then, the plates were aspirated and washed twice with 200 µL of water or 0.9% solution of sodium chloride. The incorporation of ^33Pi was determined with a microplate scintillation counter. Ten different inhibitor concentrations were measured in a range of 3 nM to 100 µM. The residual activity (%) and the IC50 values were finally calculated. From the IC50 values, the affinity constants Ki were determined using the equation: IC50 = 1/2 [Etotal] + Ki× (1 + [S]/Km) following a competitive inhibitor binding mode[18]. The used Km values for ATP have been measured with 1.3 µM for EGFR and with 2.52 µM for IGF-1R (Table 1).

[2] = molecular target: T2, EGFR (Homo sapiens, UniProt P00533); test: Receptor tyrosine kinase inhibition, 33P-ATP FlashPlate assay (EGFR); format: biochemical; conditions: recombinant GST fusion kinase, substrate Poly(Glu,Tyr)4:1, Ki from IC50, Km ATP 1.3 µM
T2 construct: GST; made in house; host or cells: Sf9 insect cells (baculovirus)
T2 sequence (P00533 25-1210): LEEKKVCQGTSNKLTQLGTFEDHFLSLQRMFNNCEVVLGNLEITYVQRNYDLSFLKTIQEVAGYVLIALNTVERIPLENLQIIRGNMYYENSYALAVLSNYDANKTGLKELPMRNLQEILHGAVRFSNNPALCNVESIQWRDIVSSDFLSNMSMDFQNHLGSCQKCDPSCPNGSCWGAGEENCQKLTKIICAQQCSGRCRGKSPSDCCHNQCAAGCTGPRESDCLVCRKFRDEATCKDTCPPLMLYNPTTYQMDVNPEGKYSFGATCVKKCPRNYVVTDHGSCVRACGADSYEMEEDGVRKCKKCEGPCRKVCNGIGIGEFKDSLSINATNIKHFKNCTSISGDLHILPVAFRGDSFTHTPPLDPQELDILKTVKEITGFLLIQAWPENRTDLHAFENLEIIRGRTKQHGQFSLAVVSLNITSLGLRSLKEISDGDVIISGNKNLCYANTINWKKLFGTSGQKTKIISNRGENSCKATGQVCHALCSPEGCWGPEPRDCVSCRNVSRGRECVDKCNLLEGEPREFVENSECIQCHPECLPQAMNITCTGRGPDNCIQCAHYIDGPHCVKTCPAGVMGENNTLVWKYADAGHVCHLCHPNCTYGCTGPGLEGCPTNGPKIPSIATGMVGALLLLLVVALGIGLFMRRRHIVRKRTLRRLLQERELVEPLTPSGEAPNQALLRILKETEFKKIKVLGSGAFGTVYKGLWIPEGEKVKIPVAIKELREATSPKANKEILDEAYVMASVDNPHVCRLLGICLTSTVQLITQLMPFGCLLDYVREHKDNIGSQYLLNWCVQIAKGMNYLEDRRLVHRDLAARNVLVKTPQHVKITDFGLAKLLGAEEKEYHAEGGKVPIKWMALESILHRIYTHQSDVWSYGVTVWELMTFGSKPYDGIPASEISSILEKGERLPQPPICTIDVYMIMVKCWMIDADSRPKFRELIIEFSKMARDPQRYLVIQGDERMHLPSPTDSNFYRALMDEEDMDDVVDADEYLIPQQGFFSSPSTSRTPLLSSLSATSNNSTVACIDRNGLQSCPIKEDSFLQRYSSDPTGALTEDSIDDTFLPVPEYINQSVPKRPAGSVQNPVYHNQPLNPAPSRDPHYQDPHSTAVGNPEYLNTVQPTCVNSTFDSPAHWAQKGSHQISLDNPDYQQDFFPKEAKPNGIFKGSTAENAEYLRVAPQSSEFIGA
Description: as §1, §2, §3, §4

[3] = test system: IGF-1R; design: method as in PMID 23639757; conditions: cited from earlier work

Row | SMILES | Ki [1] | Ki [2] | other results
1 | COc1cccc(CNc2ccnc3[nH]c4ccc(Br)cc4c23)c1 [Compound 5a, N^4–(3-Methoxybenzyl)-6-bromo-9H-pyrido[2,3-b]indole-4-amine] | 9840 ± 238 nM | 344 ± 24 nM | 
2 | Clc1cccc(CNc2ccnc3[nH]c4ccc(Br)cc4c23)c1 [Compound 5b, N^4–(3-Chlorobenzyl)-6-bromo-9H-pyrido[2,3-b]indole-4-amine] | 3470 ± 71 nM | 361 ± 35 nM | 
3 | Brc1cccc(CNc2ccnc3[nH]c4ccc(Br)cc4c23)c1 [Compound 5c, N^4–(3-Bromobenzyl)-6-bromo-9H-pyrido[2,3-b]indole-4-amine] | 2960 ± 37 nM | 255 ± 18 nM | 
4 | COc1ccc(CNc2ccnc3[nH]c4ccc(Br)cc4c23)cc1 [Compound 5e, N^4–(4-Methoxybenzyl)-6-bromo-9H-pyrido[2,3-b]indole-4-amine] | 2230 ± 22 nM | 1170 ± 57 nM | 
5 | Clc1ccc(CNc2ccnc3[nH]c4ccc(Br)cc4c23)cc1 [Compound 5f, N^4–(4-Chlorobenzyl)-6-bromo-9H-pyrido[2,3-b]indole-4-amine] | 2290 ± 43 nM |  | Ki values EGFR [2]: lost
6 | COc1cccc(CNc2ccnc3[nH]c4ccc(C(=O)O)cc4c23)c1 [Compound 7] | 2360 ± 132 nM | 140 ± 28 nM | affinity towards IGF-1R relative to corresponding 6-cyano compound 6a ([1]; fold comparison of Ki with 6a): almost tenfold lower
7 | C#Cc1cccc(Nc2ncnc3cc(OCCOC)c(OCCOC)cc23)c1 [erlotinib] |  |  | activity toward IGF-1R (erlotinib) [3]: no activity

Now from value to compound, other results behind:

Row | Ki [1] | Ki [2] | SMILES | other results
8 | 537 ± 22 nM | 101 ± 11 nM | Nc1cccc(CNc2ccnc3[nH]c4ccc(Br)cc4c23)c1 [Compound 5d, N^4–(3-Aminobenzyl)-6-bromo-9H-pyrido[2,3-b]indole-4-amine] | 
9 | 884 ± 25 nM | 448 ± 72 nM | Brc1ccc(CNc2ccnc3[nH]c4ccc(Br)cc4c23)cc1 [Compound 5g, N^4–(4-Bromobenzyl)-6-bromo-9H-pyrido[2,3-b]indole-4-amine] | 
10 | 697 ± 15 nM | 279 ± 91 nM | Cc1ccc(CNc2ccnc3[nH]c4ccc(Br)cc4c23)cc1 [Compound 5h, N^4–(4-Methylbenzyl)-6-bromo-9H-pyrido[2,3-b]indole-4-amine] | 
11 | 288 ± 26 nM | 72 ± 17 nM | COc1cccc(CNc2ccnc3[nH]c4ccc(C#N)cc4c23)c1 [Compound 6a, 4–(3-Methoxybenzyl)amino-9H-pyrido[2,3-b]indole-6-carbonitrile] | affinity towards IGF-1R relative to corresponding 6-bromo compound 5a ([1]; fold comparison of Ki with 5a): more than thirtyfold higher
12 | 269 ± 22 nM | 158 ± 26 nM | COc1ccc(CNc2ccnc3[nH]c4ccc(C#N)cc4c23)cc1 [Compound 6b, 4–(4-Methoxybenzyl)amino-9H-pyrido[2,3-b]indole-6-carbonitrile] | 
13 | 390 ± 16 nM | 160 ± 15 nM | Cc1ccc(CNc2ccnc3[nH]c4ccc(C#N)cc4c23)cc1 [Compound 6c, 4–(4-Methylbenzyl)amino-9H-pyrido[2,3-b]indole-6-carbonitrile] | 
